Calls of active or inactive are those of the source.
Key:
[1] = inhibitors of intracellular T. cruzi replication, confirmation, NIH3T3 host cells, beta-gal luminescence (AID 2044); format: functional, cell-based;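 also: intracellular parasites grown in NIH/3T3 mouse fibroblasts as host cells; luminescent beta-galactosidase reporter signal from transgenic T. cruzi replicating inside host cells; inhibitors lower the luminescence signal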
[2] = cytotoxicity toward NIH3T3 fibroblasts, dose response, counter-screen, cell-based, ATP luminescence, mouse fibroblasts (AID 2010); format: functional;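 also: cells exposed to compound for about 90 hours before reading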
[3] = biological target: T1, Microphthalmia-associated transcription factor (Homo sapiens, UniProt O75030); assay: TRPM1 promoter luciferase signal decrease, dose response, MITF inhibitor project, cell-based, SK-MEL-5, cherry-picked, set 3 (AID 493073); format: functional
T1 sequence (O75030 whole entry): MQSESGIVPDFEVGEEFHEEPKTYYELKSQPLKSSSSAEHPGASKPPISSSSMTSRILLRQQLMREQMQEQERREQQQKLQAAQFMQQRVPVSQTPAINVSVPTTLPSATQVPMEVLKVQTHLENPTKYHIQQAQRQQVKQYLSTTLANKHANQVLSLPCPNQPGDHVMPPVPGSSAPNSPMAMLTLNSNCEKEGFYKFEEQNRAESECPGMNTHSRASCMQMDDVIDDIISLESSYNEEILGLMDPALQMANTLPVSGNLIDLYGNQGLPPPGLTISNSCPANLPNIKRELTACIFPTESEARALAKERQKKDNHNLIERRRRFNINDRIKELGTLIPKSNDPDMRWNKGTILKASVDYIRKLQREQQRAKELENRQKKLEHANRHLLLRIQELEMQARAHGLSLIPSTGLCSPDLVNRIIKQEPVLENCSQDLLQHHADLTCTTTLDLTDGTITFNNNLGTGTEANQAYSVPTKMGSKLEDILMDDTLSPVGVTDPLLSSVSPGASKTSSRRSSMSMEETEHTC

[4] = biological target: Heat shock protein HSP 90-alpha (Homo sapiens, UniProt P07900); format: functional, organism-based
INS1 = assay: beta cell apoptosis inhibitors, cytokine rescue, dose response, luminescence, retest (AID 449756); format: functional, cell-based; details: Rattus norvegicus;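 also: cell death triggered by IL-1 beta plus TNF-alpha plus IFN-gamma mixture; protective hits raise ATP signal compared with cytokine alone wells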
[5] = microbe, parasite or virus in culture; format: functional; details: Mycobacterium tuberculosis
[6] = Luminescence Cell-Based Dose Retest to Confirm Inhibitors of Cancer Stem Cells. [Related pubchem assays (depositor defined):AID2717, AID2721]; format: functional; details: Homo sapiens
[7] = A549 cell cytotoxicity, dose response, cytotoxicity control, plate reader, cherry-pick, antagonist series (AID 743412); format: functional, cell-based
[8] = LGR2 antagonists, dose response, cell-based, HEK293, CRE-luciferase reporter, cherry pick, set 2 (AID 743343); format: functional;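 also: transfected cells were stimulated with diluted bursicon conditioned medium after compound addition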
[9] = MC4R antagonists, dose response, counter-screen for LGR2 antagonist project, cell-based, plate reader, cherry pick (AID 743444); format: functional;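 also: transfected HEK 293 cells stimulated with alpha-MSH peptide; potency of inhibitors of the alpha-MSH evoked signal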
[10] = biological target: Induced myeloid leukemia cell differentiation protein Mcl-1 (Homo sapiens, UniProt Q07820); format: functional
[11] = biological target: T2, Calpain-2 catalytic subunit (Sus scrofa, UniProt P43367); assay: pig calpain II inhibitor potency, dose response, biochemical, fluorogenic peptide substrate (AID 1420); format: functional
T2 sequence (P43367 whole entry): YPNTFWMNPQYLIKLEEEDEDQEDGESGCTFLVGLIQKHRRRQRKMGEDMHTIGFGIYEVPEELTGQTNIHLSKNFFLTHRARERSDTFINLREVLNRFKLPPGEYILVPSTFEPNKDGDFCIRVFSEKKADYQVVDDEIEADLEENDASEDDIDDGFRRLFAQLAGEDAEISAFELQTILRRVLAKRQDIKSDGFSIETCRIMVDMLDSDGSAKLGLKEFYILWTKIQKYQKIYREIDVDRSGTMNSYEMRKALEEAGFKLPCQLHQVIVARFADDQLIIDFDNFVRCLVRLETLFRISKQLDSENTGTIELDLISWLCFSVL

[12] = THP-1 cell cytotoxicity, dose response, cytotoxicity control for non-replicating M. tuberculosis project (AID 489025); format: functional
[13] = biological target: T3, Ubiquitin-conjugating enzyme E2 N (Homo sapiens, UniProt P61088); format: functional;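 also: Dose-response confirmation in a TR-FRET assay detecting UBC13-driven polyubiquitin chain formation, inhibition measured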
T3 sequence (P61088 whole entry): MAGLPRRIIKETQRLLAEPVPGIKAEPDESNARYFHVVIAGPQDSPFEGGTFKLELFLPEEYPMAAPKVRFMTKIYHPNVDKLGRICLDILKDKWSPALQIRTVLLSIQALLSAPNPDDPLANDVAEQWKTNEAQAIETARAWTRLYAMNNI

cells = format: functional
[14] = biological target: T4, Mannose-6-phosphate isomerase (Homo sapiens, UniProt P34949); assay: human PMI inhibitors, high substrate, primary screen, biochemical, fluorescence intensity, high mannose 6-phosphate (AID 1220)
T4 sequence (P34949 whole entry): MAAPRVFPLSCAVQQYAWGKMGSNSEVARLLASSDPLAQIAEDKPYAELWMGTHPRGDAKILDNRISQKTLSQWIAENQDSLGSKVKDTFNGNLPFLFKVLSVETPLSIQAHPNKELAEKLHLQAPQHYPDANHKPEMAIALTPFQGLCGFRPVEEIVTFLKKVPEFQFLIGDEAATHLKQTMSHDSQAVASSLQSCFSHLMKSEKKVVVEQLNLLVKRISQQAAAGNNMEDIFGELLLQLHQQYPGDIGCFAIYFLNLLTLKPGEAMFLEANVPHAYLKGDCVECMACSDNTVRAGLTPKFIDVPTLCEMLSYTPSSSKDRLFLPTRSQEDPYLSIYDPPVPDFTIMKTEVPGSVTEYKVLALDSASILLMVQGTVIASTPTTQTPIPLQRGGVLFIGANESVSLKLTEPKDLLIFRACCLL

Protein RecA = biological target: T5, Protein RecA (Mycobacterium tuberculosis, UniProt P9WHJ3); assay: Fluorescence Cell-Free Homogeneous Dose Retest to Identify Inhibitors of RecA-Intein Splicing Activity. [Related pubchem assays (depositor defined):AID2097, AID2223, AID489010, AID492950]; format: functional
T5 sequence (P9WHJ3 whole entry): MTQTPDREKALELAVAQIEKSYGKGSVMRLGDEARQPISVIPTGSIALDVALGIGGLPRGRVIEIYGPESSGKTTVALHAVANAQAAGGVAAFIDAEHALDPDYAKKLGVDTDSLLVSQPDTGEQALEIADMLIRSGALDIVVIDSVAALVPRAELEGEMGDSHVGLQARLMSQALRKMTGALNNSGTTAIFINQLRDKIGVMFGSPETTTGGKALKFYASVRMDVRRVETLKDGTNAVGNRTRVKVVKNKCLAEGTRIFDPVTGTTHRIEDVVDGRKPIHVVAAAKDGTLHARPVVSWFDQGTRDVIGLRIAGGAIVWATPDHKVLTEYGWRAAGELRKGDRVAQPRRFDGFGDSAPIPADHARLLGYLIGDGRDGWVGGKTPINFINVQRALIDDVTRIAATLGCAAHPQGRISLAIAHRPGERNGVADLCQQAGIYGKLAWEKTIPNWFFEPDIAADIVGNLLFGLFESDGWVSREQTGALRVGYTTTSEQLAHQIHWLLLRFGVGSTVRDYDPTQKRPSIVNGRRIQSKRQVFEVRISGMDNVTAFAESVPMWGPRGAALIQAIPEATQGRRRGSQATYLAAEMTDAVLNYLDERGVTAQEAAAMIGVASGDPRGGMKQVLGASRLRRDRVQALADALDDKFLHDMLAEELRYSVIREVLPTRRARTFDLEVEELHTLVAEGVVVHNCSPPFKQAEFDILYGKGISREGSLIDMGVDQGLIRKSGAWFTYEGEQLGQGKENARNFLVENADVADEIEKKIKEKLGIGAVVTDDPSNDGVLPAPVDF

Cytochrome P450 3A4 = Cytochrome P450 3A4 (Homo sapiens, UniProt P08684);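 also: CYP3A4 tested as one member of a cytochrome P450 panel screen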
Chain of Cytochrome P450 3A4 (P08684 whole entry): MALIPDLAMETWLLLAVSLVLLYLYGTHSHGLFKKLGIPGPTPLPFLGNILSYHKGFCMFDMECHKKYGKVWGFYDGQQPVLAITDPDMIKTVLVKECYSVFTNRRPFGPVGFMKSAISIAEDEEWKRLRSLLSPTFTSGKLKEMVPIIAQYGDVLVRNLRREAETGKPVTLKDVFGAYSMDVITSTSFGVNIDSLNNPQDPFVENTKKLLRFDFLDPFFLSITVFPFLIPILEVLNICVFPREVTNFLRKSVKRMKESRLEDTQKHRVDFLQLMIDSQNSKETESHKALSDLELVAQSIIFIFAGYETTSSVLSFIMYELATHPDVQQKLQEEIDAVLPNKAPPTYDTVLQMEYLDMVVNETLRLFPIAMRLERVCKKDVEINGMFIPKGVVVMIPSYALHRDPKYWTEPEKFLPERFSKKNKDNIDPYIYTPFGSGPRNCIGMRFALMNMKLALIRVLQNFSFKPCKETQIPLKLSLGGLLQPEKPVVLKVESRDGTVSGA

Chain of Induced myeloid leukemia cell differentiation protein Mcl-1 (Q07820 whole entry): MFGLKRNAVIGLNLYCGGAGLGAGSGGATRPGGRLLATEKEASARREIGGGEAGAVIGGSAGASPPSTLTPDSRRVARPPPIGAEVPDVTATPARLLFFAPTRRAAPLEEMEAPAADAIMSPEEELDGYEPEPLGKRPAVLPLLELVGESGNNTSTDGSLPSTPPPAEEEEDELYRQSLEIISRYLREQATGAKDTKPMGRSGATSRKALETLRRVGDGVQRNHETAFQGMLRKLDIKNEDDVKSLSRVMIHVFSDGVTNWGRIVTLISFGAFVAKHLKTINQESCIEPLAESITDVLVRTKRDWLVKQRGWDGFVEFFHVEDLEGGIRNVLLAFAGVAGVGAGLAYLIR

SMILES: CCCC(=O)NC(c1ccc(OC)c(OC)c1)c1cc(Cl)c2cccnc2c1O (centres undefined)
- EC50 [1]: 1.2 µM (active)
- EC50 [2]: < 6 µM (inconclusive)
- AC50 [3]: 9.06 µM (active)
- AC50 [4]: 12.4 µM (active)
- AC50 (INS1): 1.69 µM (active)

SMILES: O=C(CCc1ccc(Oc2cc([N+](=O)[O-])cc([N+](=O)[O-])c2)cc1)N1CCCCCC1
- EC50 [1]: 0.187 µM (active)
- CC50 [5]: > 40 µM (active)
- EC50 [2]: > 30 µM (not active)
- AC50 [6]: 4.73 µM (active)

SMILES: Cc1ccc(S(=O)(=O)N(C)C[C@H]2Oc3c(cccc3N(C)C)C(=O)N([C@@H](C)CO)C[C@@H]2C)cc1
- AC50 [7]: > 52 µM (inactive)
- AC50 [8]: 0.726 µM (active)
- AC50 [9]: 0.341 µM (active)

SMILES: COc1ccc(Cl)c(N2CCN(CCCNC(=O)Nc3ccc(C)cc3)CC2)c1
- IC50 [10]: 6.56 µM (active)

SMILES: CC1CCCCN1Cc1cnc(Cl)s1 (centres undefined)
- IC50 [11]: > 50 µM (not active)

SMILES: NC1=NC[C@H](Cc2ccc(O)cc2)N1CCc1cccc2ccccc12
- CC50 [12]: > 40 µM (active)
- IC50 [13]: > 20 µM (inactive)
- IC50 (cells): 9.5 µM (active)

SMILES: c1ccc(C2=Nn3c(nnc3-c3ccco3)SC2)cc1
- IC50 [14]: > 50 µM (not active)

SMILES: O=C(Nc1cccc(-c2ccc(N3CCCCC3)nn2)c1)c1ccc(Br)o1
- CC50 [5]: > 40 µM (active)

SMILES: CCCCNC(=S)N/N=C1\CCCCc2ccccc21
- IC50 [11]: 11.2 µM (not active)

SMILES: O=c1cc(-c2ccccc2)oc2cc(OCc3ccccc3)cc(O)c12
- IC50 [11]: > 50 µM (not active)

SMILES: CN1c2ccccc2C(C)(C)C12C=Nc1c(cc(N3CCOCC3)c3ccccc13)O2 (centres undefined)
- IC50 [14]: > 50 µM (not active)
- EC50 (Protein RecA): 50.5 µM (inconclusive)
- AC50 (Cytochrome P450 3A4): 4.47 µM (inconclusive)
